According to patent US6150414A, “Compositions and methods for treating viral infections” (priority 1992, dated 2000):
Several values for one entry are separate records, joined by “and”; a condition that tells them apart may be missing. Equal values may be shown once. Read-outs that look alike come from different tables or passages of the source.

Columns and labels:
[1] = system: virus budding in virus-producing cells; assay: In vitro inhibition of virus budding: production of defective budded virions (Example 10); assay type: cell-based; details: read-out: EC50 for production of defective budded virions
From the text: (§1) The results presented above in Table IX are presented as EC50 concentrations. These are the effective concentrations which inhibit 50% of the viruses in micromolar concentrations.

Friend Leukemia Virus [2] = assay: In vivo inhibition of Friend Leukemia Virus splenomegaly, intravenous 1-2 hours post infection (Example 10); design: species or system mice; details: Mus musculus, read-out: EC50 for FV-induced splenomegaly
Procedure: (§2) (3) In vivo inhibition of Friend Leukemia Virus Splenomegaly performed as described in Example 1 above except that the compounds were administered intravenously 1-2 hours post infection.
as §1

Friend Leukemia Virus [3] = assay: Inhibition of Friend Leukemia Virus-induced splenomegaly in mice, compounds intraperitoneally 24 hours after virus (Example 1(a)); assay type: in vivo, BALB/c mice; design: Actual Spleen Weight / Average Spleen Weight: unit not given here; details: for Spleen weight: single animal, listed as PS
Outline: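 BALB/c mice inoculated i.v. with 10^6 FFU Friend virus (spleen homogenate); compounds given i.p. 24 h later at 100 μg once, or 50, 100, 200 μg or 2×100 μg (second dose 24–48 h after first), two mice per group. Spleens weighed at day 10; percent inhibition from average spleen weights relative to negative and positive controls.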

retroviruses = assay: Comparison over two in vitro and one in vivo biological assays (Example 10); details: for activity across assays: Example 10
Procedure: In order to investigate the structural features of hypericin which are essential for antiretroviral activity, numerous analogs and precursors of hypericin were examined for activity in two in vitro and one in vivo biological assay.
(1) Direct inactivation of retroviruses in vitro, performed as in Example 3 above;
as §2

retroviruses (virions) = assay: Direct inactivation of retroviruses (virions) in vitro (Example 10); assay type: biochemical, Radiation Leukemia Virus; details: Table IX
Outline: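 RadLV-containing supernatants from chronically infected B10.T(6R) cells incubated 30 min on ice with hypericin or protohypericin. Virions then pelleted at 100,000×g for 1 h at 4° C and assayed for reverse transcriptase activity. EC50 is the micromolar concentration inhibiting 50% of virus.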

[4] = target: T1, Radiation Leukemia Virus reverse transcriptase (Radiation murine leukemia virus, UniProt P11227); assay: Radiation Leukemia Virus reverse transcriptase assay, supernatants from infected AQR cells (Examples 4 and 9); assay type: biochemical; details: for CPM: replicate
T1 construct: the reverse transcriptase of Radiation Leukemia Virus; endogenous in cells
Procedure: Supernatants (10 ml/tube) from B10.T(6R) cells (Meruelo et al. J. Exp. Med. 147: 470-487, 1978) chronically infected with Radiation Leukemia Virus (RadLV) were obtained by centrifugation of cells in culture at 4° C., 3500 rpm for 15 minutes. The top 2/3 of the supernatant were removed and aliquots were incubated for 30 minutes on ice with the indicated amounts of hypericin or protohypericin. […] Thereafter, supernatants were centrifuged at 100,000×g using a TI70 rotor (Beckman Instruments) for 1 hour at 4° C. The pellet was […] and analyzed for reverse transcriptase activity as follows.
The reverse transcriptase assay was performed in a volume of 100 microliters containing the following components:
The antiviral activity of HHA was tested using AQR (Bach and Meruelo, J. Exp. Med. 160:270-285, 1984) cells chronically infected with Radiation Leukemia Virus in the reverse transcriptase assay as described in Example 3 above.
The assays were conducted using the same procedure as in Example 3 above, using supernatants from infected AQR cells.

Friend Virus = assay: Friend Virus-induced splenomegaly, WIS compounds (Example 8); assay type: in vivo, mice; details: for Average % Inhibition / Average Spleen Weight / Actual Spleen Weight: Table VII; for Actual Spleen Weight: single animal
Procedure: The effects of compositions according to the present invention on the increase in spleen size (splenomegaly) of BALB/c mice (Jackson Labs, Bar Harbor, ME) was examined. In these experiments, the virus (10^6 focus forming units--FFU) was inoculated intravenously and 100 micrograms of the compounds indicated in Table II were administered to the mice intraperitoneally 24 hours later. Each compound was administered once to two mice. The animals were sacrificed ten days later and their spleens weighed.
As used in Table II (and subsequent Tables of this Example l(a) and (b), "average percent inhibition" is calculated as follows: [formula] wherein "ASWNC" designates "average spleen weight of negative control"; "ASWE" designates "average spleen weight of experimental (treated) subject"; and "ASWPC" designates "average spleen weight of positive control". Average spleen weight is the numerical average of spleen weights of each experimental group (in Table II each such group includes two members).
The AAB compounds whose synthesis is described above were assayed for antiviral activity. WIS-2, -3, -4, -5 and -6 were tested to determine their biological effects on Friend Virus-induced splenomegaly using the procedure and technique set forth in Example 1 above. The assay results (three mice per group were tested each at different concentrationss of the active composition except for the PBS-negative control wherein two animals per group were used) are reported in Table VII below.

Friend Leukemia Virus [5] = assay: Intravenous co-administration of pseudohypericin with Friend Leukemia Virus, splenomegaly; assay type: in vivo, mouse; details: for Spleen Weights: single animal, listed as PS
Procedure: A different experimental design was used involving the simultaneous intravenous co-administration of Ps with the FV complex. In this case, the viral preparation was mixed with Ps at various concentrations and the mixture was injected into the mouse tail vein in a final volume of 0.5 ml. The mice were sacrificed ten days later, their spleens weighed, and the level of inhibition of splenomegaly subsequently determined.
The effect of intravenous co-administration of pseudohypericin (diluted in PBS with 1% EtOH) with FV, on viral-induced splenomegaly.

[6] = FV + PS 5 mcg i.v. co-administration
[7] = FV + PS 20 mcg i.v. co-administration
[8] = FV + PS 50 mcg i.v. co-administration
[9] = FV 2 × 10^5 FFU, PS 80 mcg/mouse
[10] = FV 2 × 10^5 FFU, PS 80 mcg/mouse 2 inject
[11] = FV 10^6 FFU, PS 80 mcg/mouse 2 injections

O=C1c2ccccc2C(=C2c3ccccc3C(=O)c3ccccc32)c2ccccc21 [Compound 36, Bianthrone]
EC50 ([1]; in vitro, Table IX): > 100 µM
EC50 (Friend Leukemia Virus [2]; i.v. 1-2 hours post infection, Table IX): 98 µM
inhibition in vivo at 0.1 mg (Friend Leukemia Virus [3]; Mus musculus, ip, dose 2 × 100 (micrograms) i.p., Table III, read-out: Average Perdosage % Inhibition): 50%
inhibition in vivo at 0.05 mg (Friend Leukemia Virus [3]; Mus musculus, ip, dose 50 (micrograms) i.p., Table III, read-out: Average Perdosage % Inhibition): 52%
inhibition in vivo at 0.1 mg (Friend Leukemia Virus [3]; Mus musculus, ip, dose 100 (micrograms) i.p., Table III, read-out: Average Perdosage % Inhibition): 48%
inhibition in vivo at 0.2 mg (Friend Leukemia Virus [3]; Mus musculus, ip, dose 200 (micrograms) i.p., Table III, read-out: Average Perdosage % Inhibition): 57%
Average Spleen Weight (Friend Leukemia Virus [3]; dose 2 × 100 (micrograms) i.p., Table III): 1.1353
Average Spleen Weight (Friend Leukemia Virus [3]; dose 50 (micrograms) i.p., Table III): 1.0839
Average Spleen Weight (Friend Leukemia Virus [3]; dose 100 (micrograms) i.p., Table III): 1.1575
Average Spleen Weight (Friend Leukemia Virus [3]; dose 200 (micrograms) i.p., Table III): 0.9970
Pooled Average % Inhibition (Friend Leukemia Virus [3]; pooled over 50, 100, 200, 2 × 100 micrograms, Table III): 52%

O=C(O)c1cc(O)c2c(=O)c3c(O)cc(O)c4c5c(O)cc(O)c6c(=O)c7c(O)cc(C(=O)O)c8c1c2c(c34)c(c65)c78 [WIS-1, Hypericin-dicarboxylic acid]
loss of antiviral activity relative to parent (retroviruses; Example 10, structural comparison): diminished the antiviral activity
EC50 [1]: > 100 µM

O=c1c2c(O)ccc3c4ccc(O)c5c(=O)c6c(O)cc(O)c7c8c(O)cc(O)c1c8c(c23)c(c54)c67 [WIS-3, desmethylhypericin]
activity across assays (retroviruses): high degree of activity in a more than one assay
EC50 ([1]; in vitro, Table IX): 2 µM
EC50 (retroviruses (virions)): 0.07 µM
EC50 (Friend Leukemia Virus [2]): 174 µM
Average CPM ([4]; 0.05 micrograms, Table VIII): 78,424 CPM
CPM ([4]; 0.05 micrograms, Table VIII): 89,170 CPM and 67,678 CPM
Average CPM ([4]; 0.1 micrograms, Table VIII): 20,893 CPM
CPM ([4]; 0.1 micrograms, Table VIII): 19,322 CPM and 22,464 CPM
Average CPM ([4]; 0.5 micrograms, Table VIII): 2,799 CPM
CPM ([4]; 0.5 micrograms, Table VIII): 2,630 CPM and 2,968 CPM
Average CPM ([4]; 1 microgram, Table VIII): 24,606 CPM
CPM ([4]; 1 microgram, Table VIII): 21,896 CPM and 27,316 CPM
Average CPM ([4]; 2 micrograms, Table VIII): 15,467 CPM
CPM ([4]; 2 micrograms, Table VIII): 14,020 CPM and 16,914 CPM
Average CPM ([4]; 5 micrograms, Table VIII): 76,907 CPM
CPM ([4]; 5 micrograms, Table VIII): 75,776 CPM and 78,038 CPM
Average CPM ([4]; 10 micrograms, Table VIII): 119,248 CPM
CPM ([4]; 10 micrograms, Table VIII): 57,512 CPM and 61,736 CPM
inhibition at 0.01 mg ([4]; 0.5 h, read-out: Average % Inhibition): 85.4%
inhibition at 50 ng ([4]; 0.5 h, 0.05 micrograms, Table VIII): 90.4%
inhibition at 0.0001 mg ([4]; 0.5 h, 0.1 micrograms, Table VIII): 97.4%
inhibition at 0.0005 mg ([4]; 0.5 h, 0.5 micrograms, Table VIII): 99.7%
inhibition at 0.001 mg ([4]; 0.5 h, 1 microgram, Table VIII): 97%
inhibition at 0.002 mg ([4]; 0.5 h, 2 micrograms, Table VIII): 98.1%
inhibition at 0.005 mg ([4]; 0.5 h, 5 micrograms, Table VIII): 90.6%
inhibition of RadLV reverse transcriptase activity ([4]; Example 9): highest level of antiviral activity of the compounds that were tested in this assay
Average % Inhibition (Friend Virus; 1 microgram): 24.3%
Average Spleen Weight (Friend Virus; 1 microgram): 0.7737
Actual Spleen Weight (Friend Virus; 1 microgram): 0.7527 and 0.8048 and 0.7277
Average % Inhibition (Friend Virus; 10 micrograms): 24.1%
Average Spleen Weight (Friend Virus; 10 micrograms): 0.7759
Actual Spleen Weight (Friend Virus; 10 micrograms): 0.7727 and 0.8108 and 0.7413
Average % Inhibition (Friend Virus; 50 micrograms): 34.7%
Average Spleen Weight (Friend Virus; 50 micrograms): 0.6921
Actual Spleen Weight (Friend Virus; 50 micrograms): 0.6998 and 0.6723 and 0.7041
Average % Inhibition (Friend Virus; 150 micrograms): 79.7%
Average Spleen Weight (Friend Virus; 150 micrograms): 0.3290
Actual Spleen Weight (Friend Virus; 150 micrograms): 0.2967 and 0.3518 and 0.3384
antiviral activity in splenomegaly assay (Friend Virus; Example 8): most active compounds of the group in the splenomegaly assay

Cc1cc(O)c2c(=O)c3c(O)cc(O)c4c5c(O)cc(O)c6c(=O)c7c(O)cc(CO)c8c1c2c(c34)c(c65)c78 [pseudohypericin, Pseudohypericin]
Spleen Weights, mean (x) (Friend Leukemia Virus [5]; [6]): 0.3862 grams
Spleen Weights (Friend Leukemia Virus [5]; [6]): 0.3425 grams and 0.3766 grams and 0.4005 grams and 0.4255 grams
% Inhibition (Friend Leukemia Virus [5]; FV + PS 5 mcg per mouse i.v. co-administration): 75.44%
Spleen Weights, mean (x) (Friend Leukemia Virus [5]; [7]): 0.1614 grams
Spleen Weights (Friend Leukemia Virus [5]; [7]): 0.1655 grams and 0.1426 grams and 0.1433 grams and 0.1966 grams
% Inhibition (Friend Leukemia Virus [5]; FV + PS 20 mcg per mouse i.v. co-administration): 100%
Spleen Weights, mean (x) (Friend Leukemia Virus [5]; [8]): 0.1572 grams
Spleen Weights (Friend Leukemia Virus [5]; [8]): 0.1830 grams and 0.1674 grams and 0.1422 grams and 0.1365 grams
% Inhibition (Friend Leukemia Virus [5]; FV + PS 50 mcg per mouse i.v. co-administration): 100%
activity across assays (retroviruses): high degree of activity in a more than one assay
EC50 (Friend Leukemia Virus [2]): 3.8 µM
median inhibition in spleen enlargement (Friend Leukemia Virus [3]; 80 micrograms per mouse single injection, 2×10^5 FFU): 89.6%
inhibition of FV-induced splenomegaly / anti-retroviral activity (Friend Leukemia Virus [3]; Example 1(a)): marked decrease in the spleen enlargement capacity of the Friend Leukemia Virus
% Inhib (Friend Leukemia Virus [3]; [9]): 81.15%
Net change from control (Friend Leukemia Virus [3]; [9]): 0.1292
Spleen weight, mean (x) (Friend Leukemia Virus [3]; [9]): 0.3138 ± 0.1197 gms
% Inhib (Friend Leukemia Virus [3]; [10]): 89.58%
Net change from control (Friend Leukemia Virus [3]; [10]): 0.0714
Spleen weight, mean (x) (Friend Leukemia Virus [3]; [10]): 0.2560 ± 0.0723 gms
Spleen weight (Friend Leukemia Virus [3]; [10]): 0.3457 gms and 0.2784 gms and 0.2208 gms and 0.1791 gms
Spleen weight (Friend Leukemia Virus [3]; [9]): 0.4924 gms and 0.2469 gms and 0.2722 gms and 0.2438 gms
% Inhib (Friend Leukemia Virus [3]; FV 10^6 FFU, PS 80 mcg/mouse): 90.70%
Net change from control (Friend Leukemia Virus [3]; FV 10^6 FFU, PS 80 mcg/mouse): 0.0841
Spleen weight, mean (x) (Friend Leukemia Virus [3]; FV 10^6 FFU, PS 80 mcg/mouse): 0.2687 ± 0.0621 gms
% Inhib (Friend Leukemia Virus [3]; [11]): 93.82%
Net change from control (Friend Leukemia Virus [3]; [11]): 0.0558
Spleen weight, mean (x) (Friend Leukemia Virus [3]; [11]): 0.2404 ± 0.0482 gms
Spleen weight (Friend Leukemia Virus [3]; [11]): 0.2831 gms and 0.2761 gms and 0.2215 gms and 0.1810 gms
Spleen weight (Friend Leukemia Virus [3]; FV 10^6 FFU, PS 80 mcg/mouse): 0.2457 gms and 0.3400 gms and 0.2938 gms and 0.1956 gms
median inhibition of splenomegaly (Friend Leukemia Virus [3]; single injection of 80 micrograms per mouse): 93.8%
median inhibition of splenomegaly (Friend Leukemia Virus [3]; two daily consecutive injections of 80 micrograms per mouse, 2×10^5 FFU): 81.7%
median inhibition of splenomegaly (Friend Leukemia Virus [3]; two daily consecutive injections of 80 micrograms per mouse, 10^6 FFU): 90.7%
